This passage reports IC50 results from BindingDB's records for doi:10.1021/jm00101a008 (Centre De Recherche De Vitry-Alfortville, 1992).

SMILES strings stand for the structures.

The target in assay [1] is Leukotriene B4 receptor (Cavia porcellus). Description: Inhibition of [3H]LTB4 binding to Leukotriene B4 receptor in the guinea pig spleen membranes.
The target is the same in assay [2]. The description is as above. The source holds these as a separate data set.

The term IC50 denotes the midpoint of a concentration-inhibition curve. For `O=C(O)CCCCCOc1cc(-c2ccc3c(c2)OCO3)cc(-c2ccccc2)n1`, in assay [1], the IC50 is 1 nM.

In turn, `O=C(O)CCCCOc1cc(-c2ccccc2)cc(-c2ccccc2)n1` gave an IC50 in assay [1] of 50 nM.

For the molecule `O=C(O)CCCCCOc1cc(-c2ccc(NC(=O)C(F)(F)F)cc2)cc(-c2ccccc2)n1`, the IC50 in assay [1] is 150 nM.

`CC(C)(CCCCOc1cc(-c2ccc(N)cc2)cc(-c2ccccc2)n1)C(=O)O` showed an IC50 in assay [1] of 6.6 nM.

Consider `O=C(O)CCCCCOc1cc(-c2ccc([N+](=O)[O-])cc2)cc(-c2ccccc2)n1`, for which, in assay [1], the IC50 was 50 nM.

In turn, `O=C(O)CCCCCCOc1cc(-c2ccccc2)cc(-c2ccccc2)n1` showed an IC50 in assay [1] of 25 nM.

Molecule `NC(=O)CCCCCOc1cc(-c2ccccc2)cc(-c2ccccc2)n1` came in with an IC50 in assay [2] of 160 nM. This counts as sub-micromolar.

For `CC(CCCCOc1cc(-c2ccc3c(c2)OCO3)cc(-c2ccccc2Cl)n1)C(=O)O` (centres undefined), the IC50 in assay [1] was 2 nM.

The molecule `COc1ccc(-c2cc(-c3ccccc3)cc(OCCCCCC(=O)O)n2)cc1` displayed an IC50 in assay [2] of 1000 nM. In other words, the single-digit micromolar range.

`Cc1ccc(-c2cc(-c3ccccc3)cc(OCCCCCC(=O)O)n2)cc1`: in assay [2], the IC50 is 300 nM.

In assay [1], `CC(CCCCOc1cc(-c2ccccc2)cc(-c2ccccc2F)n1)C(=O)O` (centres undefined) gave an IC50 of 4 nM.

In turn, `CC(CCCCOc1cc(-c2ccccc2)cc(-c2ccccc2)n1)C(=O)O` (centres undefined) displayed an IC50 in assay [1] of 4 nM.

In assay [2], `N#CCCCCCOc1cc(-c2ccccc2)cc(-c2ccccc2)n1` gave an IC50 of 700 nM. That is a sub-micromolar value.

On to `O=C(O)CCCOc1cc(-c2ccccc2)cc(-c2ccccc2)n1`, for which the IC50 in assay [2] is 300 nM.

Turning to `CC(C)(CCCCCCOc1cc(-c2ccccc2)cc(-c2ccccc2)n1)C(=O)O`, in assay [1], the IC50 amounted to 22 nM.

As for `O=C(O)CCCCCOc1cc(-c2ccccc2Cl)cc(-c2ccccc2)n1`, the IC50 in assay [1] was determined as 200 nM. Against the preceding molecule, the IC50 is about 9.1-fold higher.

In the case of `O=C(O)CCCCCOc1cc(-c2ccccc2)cc(-c2ccccc2)n1`, the IC50 in assay [1] was determined as 3 nM.

`CC(CCCCOc1cc(-c2ccc3c(c2)OCO3)cc(-c2ccccc2)n1)C(=O)O` (centres undefined) registered an IC50 in assay [1] of 4.2 nM. The IC50 values of the last two molecules are within 1.5-fold of each other.

In turn, `COC(=O)CCCCCOc1cc(-c2ccccc2)cc(-c2ccccc2)n1` had an IC50 in assay [1] of 40 nM.
